Source: US6160087A, “Peptides having an amino acid sequence from the fimbrial protein of porphyromonas gingivalis and their uses” (priority 1993, dated 2000)

How the values were obtained:
[1] = tested on: anti-Porphyomonas gingivalis fimbria antibodies contained in sera of patients with periodontal disease; assay: Assay of the specific antibody in serum using plates coated with peptide-modified BSA (ELISA); type: binding, human; conditions: average absorbance (405 nm) of 3 specimens, serum diluted 100 times
Description: One mg of each peptide synthesized in Example 2 was dissolved in 1 ml of 0.1 M phosphate buffered saline (PBS, pH 6.0), 5 mg of sulfated SMCC (made by Pierce Co.) was added, and the mixture was incubated at 30° C. for 30 minutes to conduct maleimidization, and then subjected to Sephadex G-10 column chromatography, and the first eluate fraction was collected. 7 mg of bovine serum albumin (BSA: made by Wako Pure Chemical Industries, Ltd.) was dissolved in 1 ml of 0.1 M phosphate buffer (pH 6.0), 10 mM EDTA, the solution was mixed with the above maleimidized peptide, and the mixture was subjected to reaction at 30° C. for 1 hour. The resultant peptide-modified BSA was subjected to Sephadex G-50 column chromatography, and the first eluate fraction was collected as a plate-preparing antigen solution.
Then, six kind of peptides were synthesized after the process of Example 2, and a plate-preparing antigen solution was similarly prepared as a control.
Each of the resultant antigen solutions was diluted with 0.1 M carbonate buffer (pH 9.6), 150 mM NaCl to give 100 ml of a solution. 10 μl/well of the solution was put in a polystyrene-made microtiter plate (Immunoplate II; maxisorp type; made by Nunc Co.) and left alone at 4° C. overnight, and washing was conducted three times each with 200 μl/well of PBS, using a microtiter automatic washer (hereafter abbreviated as washer; made by Bio-Rad Laboratories). 250 μl/well of PBS containing 0.1% gelatin (made by Nitta Gelatin Co., Ltd.) was added and the mixture was allowed to stand at 4° C. overnight to block the plate. The blocking solution was removed by absorption, and the plate was dried by a vacuum dryer, put in an aluminum bag, and after sealing the bag, kept at 4° C. for the following assay.
Sera of patients of periodontal disease (n=3) and normal subjects (n=3) were used as samples, and each serum was diluted 100 times with PBS containing 10% bovine serum. 100 μl portions of these dilutions were added to the plates coated with various antigens, respectively, and incubation was conducted at 37° C. for 1 hour. Each plate was washed three times with 200 μl of PBST using the washer, 100 μl of a commercially available […] (diluted 10^3 times)/0.1% Casein/PBST was added as a secondary antibody, and incubation was conducted again at 37° C. for 1 hour. The plate was washed in the same manner as above, 100 μl of an o-phenylenediamine solution was added, incubation was conducted at 37° C. for 30 minutes, 100 μl of 0.1 N sulfuric acid was added to stop the reaction, and then, absorbance (405 nm) was measured by a microplate reader (made by Bio-Rad Laboratories) using the reaction well of no addition of the specimen as a control. The measures values are average absorbances of 3 specimens each of the patient group of periodontal disease and the normal subject group.

the peptide = assay: Inhibitory test of Porphyomonas gingivalis infection in Golden hamster with vaccine: antibody titer in serum and saliva; type: in vivo, Golden hamsters; conditions: for Antibody titer Saliva (1/500) / Antibody titer Serum (1/10^5): A405 value by the ELISA method; for antibody titer in the sera and saliva: in words
Description: (§1) 3-week-old Golden hamsters (one group consisting of 6 animals, 5 groups in total, 1 Porphyomonas gingivalis strain 381 fimbria immunity induction group, 2 Peptide 1 immunity induction group, 3 Peptide 7 immunity induction group, 4 Nonimmunity induction group, 5 Nonimmunity noninduction group) were used.
(§2) Each of the vaccines of the invention was subcutaneously administered at the oral cavity in amounts of 0.2 ml portions on the third week and the fourth week after the birth, and 0.4 ml on the fifth week.
(§3) Induction of periodontal disease was conducted by culturing Porphyomonas gingivalis strain 381 in GAM broth at 37° C. for 20 hours, collecting the cells by centrifugation, suspending the cells in phisiological saline so that the cell concentration could be 10^9 cells/ml, administering 0.2 ml portions of the suspension into the oral cavity of the Golden hamsters for 7 days starting from the sixth week after the birth, and thereafter, administering the suspension once a week.
(§4) After the Golden hamsters were fed for 80 days, 1 ml/kg portions of 0.5% pilocarpine hydrochloride were intraperitoneally administered, and saliva was taken from them. Thereafter, blood was taken from the abdominal aorta of each animal, and serum was obtained therefrom. Further, a bone preparation from each hamster was produced by amputating the head, heat treating the head using an autoclave, removing the muscle part, and washing with water and drying the remaining matter.
The saliva and serum were assayed for antibody titer against the peptide.

[2] = tested on: Porphyomonas gingivalis strain 381; assay: Inhibitory test of Porphyomonas gingivalis infection in Golden hamster with vaccine: resorption of alveolar bone; type: in vivo, Golden hamsters; conditions: for degree of resorption of the alveolar bone: in words; for Absorbance of alveolar bone (average): vaccine of Example 3, induction with Porphyomonas gingivalis strain 381, 80 days
From the text: The effects of vaccine on Peptide 1 and Peptide 7 selected from the results of Test example 1, Test example 2, Test example 3, Test example 4 and Test example 5 were examined according to the following method using degree of resorption of alveolar bone and antibody titer as measures, using the vaccine described in Example 3.
as §1, §2, §3
After the start of the cell administration, the animals were allowed to freely ingest Diet 2000 (made by Funabashi Nojo) as a dental caries-inducing feed and water.
as §4
The bone preparation was assayed for degree of resorption of the alveolar bone of a molar according to the method^f) of Tsukiyama et al. (Koku Eisei Kaishi (Jornal of Hygiene of Oral Cavity) 28, No. 3, 149, 1978).
f) The bone preparation was stained with 20% silver nitrate solution for 5 minutes, and after water washing and drying, the distance from the enamel-cement junction to the alveolar bone edge was measured by a stereoscopic microscope (magnification 15-fold).

[3] = Inhibitory test of Porphyomonas gingivalis infection in Golden hamster with vaccine: body weight; type: in vivo, Golden hamsters; conditions: vaccine of Example 3, subcutaneous at the oral cavity, fed for 80 days
Description: as §1, §2, §4

[4] = Immunization of mice with the peptides: body weight; type: in vivo; conditions: mice immunized with FCA emulsion, 3 animals per group
Description: (§5) Each peptide synthesized in Example 2 was dissolved in PBS so as to make the concentration 200 μg/ml, the solution was mixed with the same volume of FCA, and the mixture after emulsification was subcutaneously injected into mice at the back (3 animals per group). 4 weeks later, the antibody titer in the serum or saliva against the peptide was assayed by an ELISA method.

[5] = tested on: fimbrial protein of Porphyomonas gingivalis; assay: Immunization of mice with the peptides: antibody titer in serum or saliva by ELISA; type: in vivo; conditions: A405 value by the ELISA method, with FCA, 4 weeks later
Description: as §5
The fimbrial protein of Porphyomonas gingivalis was adsorbed on each well of a 96-well microtiter plate for ELISA, and a dilution of the serum with PBS (1/10^5), a dilution of the saliva with PBS (1/500), or a solution obtained by adding each peptide or the fimbrial protein of Porphyomonas gingivalis is to the dilution of the serum or saliva to cause absorption was put in the well. Reaction was conducted at 37° C. for 1 hour, and then assay was conducted by a usual ELISA method.

Porphyomonas gingivalis = type: in vivo, guinea pig; conditions: for inhibitory effect against infection with Porphyomonas gingivalis: guinea pig, in words; for Degree of redness Longest length × shortest length / Inhibition rate: with FCA; for Degree of redness Longest length × shortest length: 500 μg/animal, inoculation on the 28th day, 24 hours later; for Inhibition rate: relative to the FIA inoculation group
Description: Each peptide synthesized in Example 2 was administered together with FIA (Freund's incomplete adjuvant) or FCA (Freund's complete adjuvant), as a water-in-oil type emulsifier, into the sole of the right hind leg of a guinea pig in an amount of 500 μg/animal/time. Thereafter, on the 28th day, 200 μl of a suspension of 10^11 cells/ml of the bacterium was intracutaneously inoculated into the right flank of the same guinea pig after the hair at the region was shaved. 24 hours later, the longest length and shortest length of the resultant red coloring were measured, and the product of them was calculated. From the product was calculated the inhibition rate.

Substance	Antibody titer, Normal subject group [1]	Antibody titer, Patient group with peridontal disease [1]	Antibody titer Saliva (1/500) (the peptide)	Antibody titer Serum (1/10^5) (the peptide)	antibody titer in the sera and saliva (the peptide)	degree of resorption of the alveolar bone [2]	Absorbance of alveolar bone (average) [2]	Body weight (at the time of production of bone preparation) (average g) [3]	Body weight (Average g) [4]	Antibody titer Saliva (1/500) After absorption [5]	Antibody titer Saliva (1/500) Before absorption [5]	Antibody titer Serum (1/10^5) After absorption [5]	Antibody titer Serum (1/10^5) Before absorption [5]	inhibitory effect against infection with Porphyomonas gingivalis (Porphyomonas gingivalis)	Degree of redness Longest length × shortest length (Porphyomonas gingivalis)	Inhibition rate (Porphyomonas gingivalis)
Peptide 1: synthetic peptide, epitope of the 41 kD fimbrial subunit protein of Porphyomonas gingivalis; sequence in Table 1, not shown (ENATKVEDIK)	0.145	1.016	0.62	0.65	increse of antibody titer	inhibition of absoption of the alveolar bone	48	124 g	25 g	0.11	0.61	0.19	0.62	strong inhibitory effect	660 mm^2	66.1%
Peptide 7: synthetic peptide, epitope of the 41 kD fimbrial subunit protein of Porphyomonas gingivalis; sequence in Table 1, not shown (GFYVLENDYS)	0.226	1.224	0.79	0.71	increse of antibody titer	inhibition of absoption of the alveolar bone	41	123 g	23 g	0.15	0.69	0.14	0.67	strong inhibitory effect	240 mm^2	87.7%
